Experiments:
[1] = target: Vascular endothelial growth factor receptor 1 (Homo sapiens, UniProt P17948); assay type: cell-based; settings: huvec; note: in other assays of this panel Not Active means under 50% inhibition at 10 µM
Cytochrome P450 2D6 = Cytochrome P450 2D6 (Homo sapiens, UniProt P10635); settings: bti-tn-5b1-4; note: in other assays of this panel Not Active means under 50% inhibition at 10 µM
Progesterone receptor = target: T1, Progesterone receptor (Bos taurus, UniProt Q690N0); assay: DRUGMATRIX: Progesterone radioligand binding (ligand: [3H] R-5020); assay type: tissue-based, Uterus; settings: Not Active = under 50% inhibition at 10 µM
T1 sequence (Q690N0 whole entry): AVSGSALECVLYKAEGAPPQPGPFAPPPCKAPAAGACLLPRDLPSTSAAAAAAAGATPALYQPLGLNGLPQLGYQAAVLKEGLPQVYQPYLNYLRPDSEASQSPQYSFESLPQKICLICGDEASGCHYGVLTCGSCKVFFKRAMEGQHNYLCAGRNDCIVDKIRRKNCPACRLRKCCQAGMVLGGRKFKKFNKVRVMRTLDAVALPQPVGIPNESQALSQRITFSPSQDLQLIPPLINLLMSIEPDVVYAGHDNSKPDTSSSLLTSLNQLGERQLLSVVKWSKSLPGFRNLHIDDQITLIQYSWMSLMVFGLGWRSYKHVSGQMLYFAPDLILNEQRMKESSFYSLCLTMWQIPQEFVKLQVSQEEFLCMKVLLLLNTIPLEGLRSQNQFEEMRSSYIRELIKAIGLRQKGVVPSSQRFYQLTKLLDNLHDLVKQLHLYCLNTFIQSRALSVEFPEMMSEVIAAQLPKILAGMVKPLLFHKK

[2] = target: T2, Cysteinyl leukotriene receptor 1 (Homo sapiens, UniProt Q9Y271); assay type: cell membranes, CHO-K1, Membrane; note: in other assays of this panel Not Active means under 50% inhibition at 10 µM
T2 sequence (Q9Y271 whole entry): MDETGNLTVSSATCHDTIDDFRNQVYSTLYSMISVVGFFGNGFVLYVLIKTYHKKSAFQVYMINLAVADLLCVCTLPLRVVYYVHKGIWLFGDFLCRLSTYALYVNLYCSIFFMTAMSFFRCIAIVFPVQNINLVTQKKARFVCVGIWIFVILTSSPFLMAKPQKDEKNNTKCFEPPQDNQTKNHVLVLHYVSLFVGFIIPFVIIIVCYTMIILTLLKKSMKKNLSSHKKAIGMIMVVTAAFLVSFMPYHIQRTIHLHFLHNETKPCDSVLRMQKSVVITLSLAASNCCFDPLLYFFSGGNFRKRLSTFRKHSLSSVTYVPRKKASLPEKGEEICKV

Cytochrome P450 2A6 = target: T3, Cytochrome P450 2A6 (Homo sapiens, UniProt P11509); settings: bti-tn-5b1-4; note: in other assays of this panel Not Active means under 50% inhibition at 10 µM
T3 sequence (P11509 whole entry): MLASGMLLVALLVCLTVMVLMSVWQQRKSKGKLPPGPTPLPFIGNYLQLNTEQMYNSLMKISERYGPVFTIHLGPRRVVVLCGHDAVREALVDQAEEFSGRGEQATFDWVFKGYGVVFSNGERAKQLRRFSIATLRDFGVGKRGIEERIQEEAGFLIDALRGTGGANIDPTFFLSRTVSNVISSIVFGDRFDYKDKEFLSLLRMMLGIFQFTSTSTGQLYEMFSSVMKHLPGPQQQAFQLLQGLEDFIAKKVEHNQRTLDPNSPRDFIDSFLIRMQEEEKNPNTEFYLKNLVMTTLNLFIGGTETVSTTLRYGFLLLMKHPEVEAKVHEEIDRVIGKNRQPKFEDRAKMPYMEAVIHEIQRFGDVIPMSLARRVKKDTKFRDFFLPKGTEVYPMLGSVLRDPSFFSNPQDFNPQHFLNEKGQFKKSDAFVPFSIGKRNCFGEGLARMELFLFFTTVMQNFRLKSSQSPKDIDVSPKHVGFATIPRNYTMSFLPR

Cannabinoid receptor 1 = Cannabinoid receptor 1 (Homo sapiens, UniProt P21554); assay type: cell membranes, Chem-1, Membrane; note: in other assays of this panel Not Active means under 50% inhibition at 10 µM
Estrogen receptor beta = Estrogen receptor beta (Homo sapiens, UniProt Q92731); settings: sf9; note: in other assays of this panel Not Active means under 50% inhibition at 10 µM
[3] = target: Voltage-gated inwardly rectifying potassium channel KCNH2 (Homo sapiens, UniProt Q12809); settings: hek293; note: in other assays of this panel Not Active means under 50% inhibition at 10 µM
[4] = DRUGMATRIX: Phosphodiesterase PDE3 enzyme inhibition (substrate: [3H]cAMP + cAMP); assay type: tissue-based, Homo sapiens; settings: platelet; Not Active = under 50% inhibition at 10 µM
Mu-type opioid receptor = Mu-type opioid receptor (Homo sapiens, UniProt P35372); assay: DRUGMATRIX: Opiate mu (OP3, MOP) radioligand binding (ligand: [3H] Diprenorphine); assay type: cell membranes, CHO-K1, Membrane; settings: cho-k1; Not Active = under 50% inhibition at 10 µM
Sequence of Mu-type opioid receptor (P35372 whole entry): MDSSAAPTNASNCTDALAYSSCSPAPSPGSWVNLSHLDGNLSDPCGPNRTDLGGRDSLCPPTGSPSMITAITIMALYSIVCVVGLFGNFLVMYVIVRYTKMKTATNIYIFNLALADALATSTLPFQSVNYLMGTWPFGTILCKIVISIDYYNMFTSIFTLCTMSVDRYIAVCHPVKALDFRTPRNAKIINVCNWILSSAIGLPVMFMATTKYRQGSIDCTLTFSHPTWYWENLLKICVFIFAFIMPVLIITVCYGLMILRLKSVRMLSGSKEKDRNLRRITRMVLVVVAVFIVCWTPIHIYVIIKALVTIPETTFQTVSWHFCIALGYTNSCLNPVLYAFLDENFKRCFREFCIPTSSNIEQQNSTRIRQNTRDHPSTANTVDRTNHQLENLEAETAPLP

Sequence of Voltage-gated inwardly rectifying potassium channel KCNH2 (Q12809 whole entry): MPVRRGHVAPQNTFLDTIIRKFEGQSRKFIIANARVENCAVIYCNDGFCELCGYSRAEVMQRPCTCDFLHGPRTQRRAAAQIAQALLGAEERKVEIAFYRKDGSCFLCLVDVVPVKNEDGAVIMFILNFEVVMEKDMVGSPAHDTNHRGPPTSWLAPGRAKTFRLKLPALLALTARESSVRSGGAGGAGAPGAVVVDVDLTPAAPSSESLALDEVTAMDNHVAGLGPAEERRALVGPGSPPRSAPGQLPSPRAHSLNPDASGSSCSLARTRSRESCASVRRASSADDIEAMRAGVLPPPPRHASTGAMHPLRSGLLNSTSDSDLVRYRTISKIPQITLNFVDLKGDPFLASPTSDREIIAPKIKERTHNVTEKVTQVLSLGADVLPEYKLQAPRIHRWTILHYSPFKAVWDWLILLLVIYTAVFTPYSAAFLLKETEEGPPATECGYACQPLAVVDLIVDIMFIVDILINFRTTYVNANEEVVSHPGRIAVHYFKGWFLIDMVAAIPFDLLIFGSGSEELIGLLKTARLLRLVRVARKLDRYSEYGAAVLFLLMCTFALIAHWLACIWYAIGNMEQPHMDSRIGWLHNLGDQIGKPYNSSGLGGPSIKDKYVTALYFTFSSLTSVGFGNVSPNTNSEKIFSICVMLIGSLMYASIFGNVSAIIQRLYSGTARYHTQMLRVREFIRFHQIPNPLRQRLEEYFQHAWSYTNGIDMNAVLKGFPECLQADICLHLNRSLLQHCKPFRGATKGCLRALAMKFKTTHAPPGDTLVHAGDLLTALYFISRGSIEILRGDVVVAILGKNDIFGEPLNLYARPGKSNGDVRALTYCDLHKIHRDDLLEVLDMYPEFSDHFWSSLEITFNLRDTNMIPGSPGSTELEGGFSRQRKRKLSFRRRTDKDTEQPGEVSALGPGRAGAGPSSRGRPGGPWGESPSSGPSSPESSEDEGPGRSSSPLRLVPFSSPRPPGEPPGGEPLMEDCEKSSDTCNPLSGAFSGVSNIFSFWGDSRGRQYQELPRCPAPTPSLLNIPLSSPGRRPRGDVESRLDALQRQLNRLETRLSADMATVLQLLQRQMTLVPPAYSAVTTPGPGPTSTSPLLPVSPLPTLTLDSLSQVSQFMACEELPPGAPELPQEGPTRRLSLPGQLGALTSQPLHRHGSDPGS
Sequence of Vascular endothelial growth factor receptor 1 (P17948 whole entry): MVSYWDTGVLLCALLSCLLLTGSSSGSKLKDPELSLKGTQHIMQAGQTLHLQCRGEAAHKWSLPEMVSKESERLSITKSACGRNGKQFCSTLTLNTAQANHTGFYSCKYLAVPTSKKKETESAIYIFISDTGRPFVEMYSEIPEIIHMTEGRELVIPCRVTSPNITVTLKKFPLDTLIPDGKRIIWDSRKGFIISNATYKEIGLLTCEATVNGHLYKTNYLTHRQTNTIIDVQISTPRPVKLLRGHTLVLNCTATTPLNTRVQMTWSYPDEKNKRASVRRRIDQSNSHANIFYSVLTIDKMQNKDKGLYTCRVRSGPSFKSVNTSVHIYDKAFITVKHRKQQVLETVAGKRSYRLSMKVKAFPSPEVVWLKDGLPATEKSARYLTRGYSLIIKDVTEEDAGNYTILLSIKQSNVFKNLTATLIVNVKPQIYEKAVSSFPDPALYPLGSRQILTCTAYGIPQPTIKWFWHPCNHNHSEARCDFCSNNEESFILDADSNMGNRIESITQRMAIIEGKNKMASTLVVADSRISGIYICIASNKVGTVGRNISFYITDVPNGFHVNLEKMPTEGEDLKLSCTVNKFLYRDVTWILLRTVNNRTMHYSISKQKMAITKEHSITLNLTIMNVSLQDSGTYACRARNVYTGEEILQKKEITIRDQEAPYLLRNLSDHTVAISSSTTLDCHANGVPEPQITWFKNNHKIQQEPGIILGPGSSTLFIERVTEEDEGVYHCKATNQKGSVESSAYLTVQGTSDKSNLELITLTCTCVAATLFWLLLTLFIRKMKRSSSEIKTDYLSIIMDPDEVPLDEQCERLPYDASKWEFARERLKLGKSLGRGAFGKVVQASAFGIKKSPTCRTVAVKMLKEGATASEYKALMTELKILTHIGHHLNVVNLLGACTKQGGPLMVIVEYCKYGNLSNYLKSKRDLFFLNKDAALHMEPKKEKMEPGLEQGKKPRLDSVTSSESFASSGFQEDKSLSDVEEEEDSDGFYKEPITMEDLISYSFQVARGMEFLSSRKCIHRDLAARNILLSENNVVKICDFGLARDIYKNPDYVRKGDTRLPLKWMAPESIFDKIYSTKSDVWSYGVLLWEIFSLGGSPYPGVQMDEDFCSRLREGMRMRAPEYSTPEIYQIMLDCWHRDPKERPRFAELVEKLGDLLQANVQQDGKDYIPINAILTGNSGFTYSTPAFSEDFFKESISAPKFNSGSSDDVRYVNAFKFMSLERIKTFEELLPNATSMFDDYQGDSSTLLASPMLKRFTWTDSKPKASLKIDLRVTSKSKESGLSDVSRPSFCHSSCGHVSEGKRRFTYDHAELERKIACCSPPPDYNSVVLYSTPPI
Sequence of Cytochrome P450 2D6 (P10635 whole entry): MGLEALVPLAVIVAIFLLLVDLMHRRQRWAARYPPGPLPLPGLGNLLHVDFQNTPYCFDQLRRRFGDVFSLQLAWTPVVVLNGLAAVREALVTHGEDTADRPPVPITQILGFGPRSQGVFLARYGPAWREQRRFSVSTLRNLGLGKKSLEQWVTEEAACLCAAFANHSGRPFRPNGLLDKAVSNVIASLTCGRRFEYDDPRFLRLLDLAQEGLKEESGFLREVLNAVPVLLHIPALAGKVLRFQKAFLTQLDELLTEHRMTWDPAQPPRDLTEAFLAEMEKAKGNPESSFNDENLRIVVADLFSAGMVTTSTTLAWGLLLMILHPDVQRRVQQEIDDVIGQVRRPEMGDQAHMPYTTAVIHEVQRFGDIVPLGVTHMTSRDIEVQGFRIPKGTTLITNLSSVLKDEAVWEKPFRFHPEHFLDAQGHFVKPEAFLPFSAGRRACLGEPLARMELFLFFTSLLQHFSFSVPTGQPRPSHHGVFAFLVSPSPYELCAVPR
Sequence of Cannabinoid receptor 1 (P21554 whole entry): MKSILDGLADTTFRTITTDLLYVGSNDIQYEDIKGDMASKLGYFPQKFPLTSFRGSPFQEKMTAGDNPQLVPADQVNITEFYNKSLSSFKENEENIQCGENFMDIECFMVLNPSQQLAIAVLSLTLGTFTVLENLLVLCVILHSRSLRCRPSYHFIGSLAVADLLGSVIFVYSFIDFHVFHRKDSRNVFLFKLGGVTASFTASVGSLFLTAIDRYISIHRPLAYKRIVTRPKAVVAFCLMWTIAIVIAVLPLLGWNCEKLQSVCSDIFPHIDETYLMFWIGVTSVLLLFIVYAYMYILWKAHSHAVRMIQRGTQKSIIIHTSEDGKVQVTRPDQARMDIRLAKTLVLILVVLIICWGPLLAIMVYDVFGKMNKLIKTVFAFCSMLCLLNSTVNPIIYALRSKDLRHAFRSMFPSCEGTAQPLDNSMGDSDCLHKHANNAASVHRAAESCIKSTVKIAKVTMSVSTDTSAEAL
Sequence of Estrogen receptor beta (Q92731 whole entry): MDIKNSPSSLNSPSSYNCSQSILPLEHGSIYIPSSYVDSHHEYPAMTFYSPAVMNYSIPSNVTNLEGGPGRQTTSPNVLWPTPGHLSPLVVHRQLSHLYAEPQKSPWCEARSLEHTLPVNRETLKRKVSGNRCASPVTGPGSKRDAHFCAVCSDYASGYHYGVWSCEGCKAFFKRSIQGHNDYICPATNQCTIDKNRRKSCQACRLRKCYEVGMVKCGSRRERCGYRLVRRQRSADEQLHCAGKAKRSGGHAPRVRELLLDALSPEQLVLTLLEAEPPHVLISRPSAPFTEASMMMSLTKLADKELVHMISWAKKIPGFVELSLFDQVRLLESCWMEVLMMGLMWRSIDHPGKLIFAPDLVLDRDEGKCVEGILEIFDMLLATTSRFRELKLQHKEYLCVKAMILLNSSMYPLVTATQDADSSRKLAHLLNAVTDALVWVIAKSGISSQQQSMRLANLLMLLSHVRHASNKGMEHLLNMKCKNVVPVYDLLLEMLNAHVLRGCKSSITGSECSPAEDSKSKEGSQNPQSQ

SMILES	IC50 [1]	IC50 (Cytochrome P450 2D6)	Ki (Cytochrome P450 2D6)	IC50 (Progesterone receptor)	IC50 ([2]; cho-k1)	IC50 (Cytochrome P450 2A6)	Ki (Cytochrome P450 2A6)	IC50 (Cannabinoid receptor 1; chem-1)	IC50 (Estrogen receptor beta)	IC50 [3]	Ki [3]	Ki (Progesterone receptor; read-out: Ki) [nM]	IC50 ([2]; read-out: IC50) [µM]	Ki ([2]; read-out: Ki) [µM]	IC50 [4]	Ki [4]	IC50 (Mu-type opioid receptor)	IC50 (Cannabinoid receptor 1; read-out: IC50) [nM]	Ki (Cannabinoid receptor 1; read-out: Ki) [nM]
COc1cc2c(c(OC)c1OC)-c1ccc(OC)c(=O)cc1[C@@H](NC(C)=O)CC2 [COLCHICINE]	Not Active	Not Active	Not Active	Not Active	Not Active	Not Active	Not Active	Not Active	Not Active	Not Active	Not Active								
CC/C(=C(/CC)c1ccc(O)cc1)c1ccc(O)cc1 [DIETHYLSTILBESTROL]	Not Active	Not Active	Not Active			Not Active	Not Active	Not Active	Not Active	Not Active	Not Active	611	17.7	8.87					
CC(=O)N1CCN(c2ccc(OCC3COC(Cn4ccnc4)(c4ccc(Cl)cc4Cl)O3)cc2)CC1 (stereo not given) [KETOCONAZOLE]	Not Active			Not Active	Not Active	Not Active	Not Active	Not Active	Not Active						Not Active	Not Active	Not Active		
C=CCN1CC[C@]23c4c5ccc(O)c4O[C@H]2C(=O)CC[C@@]3(O)[C@H]1C5 [NALOXONE]	Not Active			Not Active	Not Active			Not Active	Not Active	Not Active	Not Active								
COCCOC(=O)C1=C(C)NC(C)=C(C(=O)OC(C)C)C1c1cccc([N+](=O)[O-])c1 (stereo not given) [NIMODIPINE]	Not Active			Not Active	Not Active					Not Active	Not Active				Not Active	Not Active	Not Active	1740	1370

Source: ChEMBL document CHEMBL1909046, “DrugMatrix in vitro pharmacology data”
